Measured values published in patent publication US10550125B2, “Prodrugs of imidazotriazine compounds as CK2 inhibitors” (BRISTOL-MYERS SQUIBB COMPANY, priority 2015, dated 2020).
pIC50: −log10 of the molar value. Values after ≈ are worked out from the molar mass of the structure shown. Read-outs that look alike come from different tables or passages of the source.

Key:
CK2A2 = CK2A2 (Homo sapiens (Human), UniProt P19784); assay: CK2 kinase assay (CK2A2); format: biochemical; details: recombinant CK2A2
Description: (§1) The effectiveness of compounds of the present invention as inhibitors of protein kinases can be readily tested by assays known to those skilled in the art. For example, in vitro protein kinase assays may be conducted with a relevant purified protein kinase and an appropriate synthetic substrate to determine the inhibitory activity of the compounds. […] Reaction mixtures were incubated at 30° C. for 1 hour, and reaction products were captured by binding to phosphocellulose (P81) filter plates. Incorporation of radioactive phosphate into the peptide substrate was determined by liquid scintillation counting. The potency of compounds in inhibiting CK2 is expressed as IC50, defined as the concentrations of compounds required to inhibit the enzymatic activity by 50%.
(§2) The inhibitory activity of the instant compounds may also be measured by recombinant CK2 holoenzyme kinase assays. The assays were performed in U-bottom 384-well plates. The final assay volume was 30 μl prepared from 15 μl additions of enzyme and substrates (fluoresceinated peptide FL-RRRADDSDDDDD-NH2 and ATP) and test compounds in assay buffer (20 mM HEPES pH 7.4, 10 mM MgCl2, 100 mM NaCl, 0.015% Brij35 and 0.25 mM DTT). The reaction was initiated by the combination of bacterially expressed, CK2 α/β or CK2 α′/β holoenzyme with substrates and test compounds. The reaction was incubated at room temperature for 60 minutes and terminated by adding 30 μl of 35 mM EDTA to each sample. The reaction mixture was analyzed on the Caliper LABCHIP® 3000 (Caliper, Hopkinton, Mass.) by electrophoretic separation of the fluorescent substrate and phosphorylated product. Inhibition data were calculated by comparison to no enzyme control reactions for 100% inhibition and vehicle-only reactions for 0% inhibition. The final concentration of reagents in the CK2 α/β assay was 25 μM ATP, 1.5 μM FL-RRRADDSDDDDD-NH2, 50 pM CK2 α/β holoenzyme, and 1.6% DMSO. The final concentration of reagents in the CK2 α′/β assay was 10 μM ATP, 1.5 μM FL-RRRADDSDDDDD-NH2, 100 pM CK2 α′/β holoenzyme, and 1.6% DMSO. Dose response curves were generated to determine the concentration required inhibiting 50% of kinase activity (IC50). Compounds were dissolved at 10 mM in dimethylsulfoxide (DMSO) and evaluated at eleven concentrations. IC50 values were derived by non-linear regression analysis.

CK2A1 = CK2A1 (Homo sapiens (Human), UniProt P68400); assay: CK2 kinase assay (CK2A1); format: biochemical; details: recombinant CK2A1
Description: as §1, §2

[1] = Single-dose pharmacokinetics in rats (oral bioavailability); format: in vivo; details: for Oral Bioavailability in Rats, % F: male Sprague-Dawley rats, ratio of dose-normalized AUC, oral vs IV; for Prodrug bioavailability in Rats, % F: dose-normalized AUC of parent (Example 1) after oral prodrug vs IV infusion of parent
Description: In a study to determine oral bioavailability in male Sprague-Dawley rats, two groups of animals (N=3 per group, 300 to 350 g) are used. One group (non-fasted) receives the compound by IV infusion (over 10 minutes) via a jugular vein and one group (fasted) receives drug by oral gavage. Serial blood samples (˜0.3 mL) are collected from the jugular vein into tri-potassium ethylenediaminetetraacetic acid (K3EDTA)-containing tubes at 0.167 (for IV), 0.25, 0.5, 1, 3, 5, 7, and 24 hours, post dose and then centrifuged at 4° C. (1500 to 2000×g) to obtain plasma, which is stored at −20° C. until analysis by LC-MS/MS.
The pharmacokinetic parameters were obtained by non-compartmental analysis of plasma concentration (determined by LC/MS/MS) vs. time data (ThermoKinetica Software version 4.4.1). The peak concentration (Cmax) and time for Cmax, Tmax, were recorded directly from experimental observations. The area under the curve from time zero to the last sampling time (AUC0-t) was calculated using a combination of linear and log trapezoidal summations. The total plasma clearance (CLTp), steady-state volume of distribution (Vss), apparent elimination half-life (t½) and mean residence time (MRT) were estimated after IV administration. Estimation of T½ was made using a minimum of 3 time points with quantifiable concentrations.
For non-prodrugs, the absolute oral bioavailability F was estimated as the ratio of dose-normalized AUC values following oral and IV doses.
In case of prodrugs (e.g., Examples 2 and 5), absolute bioavailability F was estimated as the ratio of dose-normalized AUC values of parent (Example 1) upon oral administration of prodrugs (Examples 2 and 5) and IV infusion of parent (Example 1).

pCK2 motif = assay: In vivo pharmacodynamic study, pCK2 motif inhibition in SNU-C1 (colon) xenograft tumor model; design: species or system mice; details: for % inh. of p-CK2 at 24th hour: oral gavage, SNU-C1 (colon) xenograft in mice
Description: pCK2 motif is a putative cellular substrate of CK2 with molecular weight of ˜60 kDa.
To determine extent of pCK2 motif inhibition by test compounds in vivo, SNU-C1 colon tumor cells were inoculated into female BALB/c athymic mice and propagated as subcutaneous xenografts. The dosing solutions of the compound or control were administered to mice with tumors reaching ˜500 mm by oral gavage at the indicated dose levels and schedules. Tumors were collected from control and treated mice at the indicated times and immediately frozen in liquid nitrogen. Frozen tumors were thawed on ice in 5 volumes of TTG buffer (Tris-HCl, pH 7.9, 10% glycerol, 0.02% Tween-20). Tumors were homogenized using a Qiagen TissueLyser II (3×1 min (1/30S)) in Qiagen Tissulyser tubes containing steel beads. Tumor homogenates were clarified by microcentrifugation at 13000 rpm for 10 min. Western blot analysis was performed using 60 μg of protein per lane on 4-15% BioRad SDS-PAGE gels. Blots were probed with an anti-pCK2 motif antibody (mAb #8738 Cell Signaling Technology) and anti-Actin antibody. The pCK2 motif antibody is a purified […] antibody developed by immunizing mice with a degenerate mixture of peptides corresponding to the consesnus phorylation site used by CK2. The intensity of the pCK2 motif band was measured on images obtained from the Licor Odyssey instrument. % pCK2 remaining at each dose was calculated relative to the average intensity of bands from untreated, control mouse tumors.

[2] = Thermodynamic equilibrium aqueous solubility assay; format: physicochemical; details: for solubility at 24 h: aqueous buffer, thermodynamic from solid
Description: Standards Preparation: The calibration standard was prepared by accurately weighing 0.5-0.7 mg of sample in 5 ml of methanol. If the material was not fully soluble in methanol, other solvents such as DMSO or mixed solvents were used.
The solution was sonicated and vortexed for ˜30 seconds. The vials were shaken at 300 rpm at room temperature for 24 hrs. The exact incubation time for a specific prodrug was based on the prior aqueous stability data. If the compound was stable in the buffer up to 24 hrs, then the solubility was measured after 24 hrs, otherwise kinetic solubility data was reported. The final saturated solution was then transferred to a 1.5 mL eppendorf tube and centrifuged for ˜2 min. at 10000 rpms. The supernatant from the saturated solution was transferred to a glass HPLC vial and the solubility was analyzed by HPLC using a four point calibration curve.

[3] = 50 mM potassium phosphate buffer, pH 6.5, 50 mM potassium phosphate, read-out: Solubility pH 6.5
[4] = simulated gastric fluid, pH 1.0, read-out: Solubility pH 1.0
[5] = 50 mM sodium acetate buffer, pH 4.0, 50 mM sodium acetate, read-out: Solubility pH 4.0

Chain of CK2A1 (P68400 whole entry): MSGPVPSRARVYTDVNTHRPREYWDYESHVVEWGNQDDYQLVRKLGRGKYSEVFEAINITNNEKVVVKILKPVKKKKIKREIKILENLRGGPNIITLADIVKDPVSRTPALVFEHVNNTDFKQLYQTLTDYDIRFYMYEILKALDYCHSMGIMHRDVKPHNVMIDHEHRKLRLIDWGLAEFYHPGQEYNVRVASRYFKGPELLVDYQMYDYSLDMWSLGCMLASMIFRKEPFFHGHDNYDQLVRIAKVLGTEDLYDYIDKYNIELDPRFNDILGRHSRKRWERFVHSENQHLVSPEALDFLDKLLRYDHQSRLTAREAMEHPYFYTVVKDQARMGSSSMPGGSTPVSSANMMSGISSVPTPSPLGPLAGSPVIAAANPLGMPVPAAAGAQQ
Chain of CK2A2 (P19784 whole entry): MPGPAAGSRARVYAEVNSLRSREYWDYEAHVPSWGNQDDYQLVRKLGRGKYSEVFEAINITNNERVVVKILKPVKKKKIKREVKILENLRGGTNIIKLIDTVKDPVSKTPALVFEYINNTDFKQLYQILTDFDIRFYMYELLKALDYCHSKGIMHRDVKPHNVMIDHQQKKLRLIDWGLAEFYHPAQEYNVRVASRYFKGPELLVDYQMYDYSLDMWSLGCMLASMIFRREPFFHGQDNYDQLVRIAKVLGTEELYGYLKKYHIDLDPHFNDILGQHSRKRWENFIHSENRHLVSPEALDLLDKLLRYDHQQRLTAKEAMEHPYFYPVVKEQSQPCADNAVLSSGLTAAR

Row | pIC50 (CK2A2) | pIC50 (CK2A1) | Oral Bioavailability in Rats, % F [1] [% F] | bioavailability in rats compared to Example 174 of WO2014011974 (in words) ([1]; rats, oral) | SMILES | % inh. of p-CK2 at 24th hour (pCK2 motif; 40 mg/kg BID) [%/40 mg/kg BID] | solubility at 24 h [2, 3] [µg/mL] | solubility at 24 h [2, 4] [µg/mL] | % inh. of p-CK2 at 24th hour (pCK2 motif; 15 mg/kg BID) [%/15 mg/kg BID] | suppression of pCK2 motif levels relative to vehicle control (in words) (pCK2 motif; SNU-C1 xenograft in mice, up to 24 hours) | solubility compared to the parent compound Example 1 (in words) [2] | solubility at 24 h [2, 5] [µg/mL] | Prodrug bioavailability in Rats, % F ([1]; rats) [% F]
1 | 7.00 to 8.00 | 6.00 to 7.00 |  |  | CCNc1nc(N(C(=O)OCOC(=O)/C=C/C(=O)O)c2cc(C#N)cc(N3CCN([C@@H](C)C(N)=O)CC3)c2Cl)nn2c(C#N)cnc12 [Example 3, (S,E)-4-((((3-(4-(1-amino-1-oxopropan-2-yl)piperazin-1-yl)-2-chloro-5-cyanophenyl)(7-cyano-4-(ethylamino)imidazo[2,1-f][1,2,4]triazin-2-yl)carbamoyl)oxy)methoxy)-4-oxobut-2-enoic Acid] |  |  |  |  |  |  |  | 
2 | > 8.00 | 7.00 to 8.00 |  |  | CCNc1nc(N(C(=O)OCOC(=O)CC(C)(C)COP(=O)(O)O)c2cc(C#N)cc(N3CCN([C@@H](C)C(N)=O)CC3)c2Cl)nn2c(C#N)cnc12 [Example 4, (S)-(((3-(4-(1-amino-1-oxopropan-2-yl)piperazin-1-yl)-2-chloro-5-cyanophenyl)(7-cyano-4-(ethylamino)imidazo[2,1-f][1,2,4]triazin-2-yl)carbamoyl)oxy)methyl 3,3-dimethyl-4-(phosphonooxy)butanoate] |  |  |  |  |  |  |  | 

Second part, the compound before the results:

Row | SMILES | pIC50 (CK2A2) | pIC50 (CK2A1) | Oral Bioavailability in Rats, % F [1] [% F] | bioavailability in rats compared to Example 174 of WO2014011974 (in words) ([1]; rats, oral) | % inh. of p-CK2 at 24th hour (pCK2 motif; 40 mg/kg BID) [%/40 mg/kg BID] | solubility at 24 h [2, 3] [µg/mL] | solubility at 24 h [2, 4] [µg/mL] | % inh. of p-CK2 at 24th hour (pCK2 motif; 15 mg/kg BID) [%/15 mg/kg BID] | suppression of pCK2 motif levels relative to vehicle control (in words) (pCK2 motif; SNU-C1 xenograft in mice, up to 24 hours) | solubility compared to the parent compound Example 1 (in words) [2] | solubility at 24 h [2, 5] [µg/mL] | Prodrug bioavailability in Rats, % F ([1]; rats) [% F]
3 | COC(=O)N[C@H]1CCN(c2cc(C#N)cc(Nc3nc(NC4CC4)c4ncc(C#N)n4n3)c2Cl)C[C@@H]1O [174 (WO2014011974), reference compound] |  |  | 8 |  | 33 |  |  |  |  |  |  | 
4 | CCNc1nc(Nc2cc(C#N)cc(N3CCN([C@@H](C)C(N)=O)CC3)c2Cl)nn2c(C#N)cnc12 [Example 1, (S)-2-(4-(2-chloro-5-cyano-3-((7-cyano-4-(ethylamino)imidazo[2,1-f][1,2,4]triazin-2-yl)amino)phenyl)piperazin-1-yl)propanamide] | > 8.00 | > 8.00 | 68 | marked improvement in bioavailability |  | < 1 | 22 (≈ 44.5 µM) | 91 | significantly suppressed |  |  | 
5 | CCNc1nc(N(C(=O)OCOC(=O)CC(C)(C)c2c(C)cc(C)cc2OP(=O)(O)O)c2cc(C#N)cc(N3CCN([C@@H](C)C(N)=O)CC3)c2Cl)nn2c(C#N)cnc12 [Example 5, (S)-(((3-(4-(1-amino-1-oxopropan-2-yl)piperazin-1-yl)-2-chloro-5-cyanophenyl)(7-cyano-4-(ethylamino)imidazo[2,1-f][1,2,4]triazin-2-yl)carbamoyl)oxy)methyl 3-(2,4-dimethyl-6-(phosphonooxy)phenyl)-3-methylbutanoate] | 7.00 to 8.00 | 6.00 to 7.00 |  |  |  | 1340 (≈ 1580 µM) | 253 (≈ 297 µM) |  |  | superior solubility | 160 (≈ 188 µM) | 88
6 | CCNc1nc(N(C(=O)OCOC(=O)Cc2ccc(OP(=O)(O)O)cc2)c2cc(C#N)cc(N3CCN([C@@H](C)C(N)=O)CC3)c2Cl)nn2c(C#N)cnc12 [Example 2, (S)-(((3-(4-(1-amino-1-oxopropan-2-yl)piperazin-1-yl)-2-chloro-5-cyanophenyl)(7-cyano-4-(ethylamino)imidazo[2,1-f][1,2,4]triazin-2-yl)carbamoyl)oxy)methyl 2-(4-(phosphonooxy)phenyl)acetate] | 7.00 to 8.00 | 6.00 to 7.00 |  |  |  | 835 (≈ 1070 µM) | 242 (≈ 309 µM) |  |  | superior solubility | 124 (≈ 159 µM) | 40
